Source: paper PMC6155437 (Molecules : A Journal of Synthetic Chemistry and Natural …, 2017)
“Also recorded” adds a separate entry of the source.

Assays:
Assay type in all cases: in vitro ADME
UGT1A1 = molecular target: T1, UGT1A1 (Homo sapiens, UniProt P22309); assay: UGT1A1 SN-38 glucuronidation inhibition in ultrapool human liver microsomes; details: at 50 µM
T1 construct: pooled human liver microsomes (0.2 mg/mL), 5 mM UDPGA; tissue Corning Life Sciences; host or cells: pooled human liver microsomes (150 donors)
T1 sequence (P22309 26-533): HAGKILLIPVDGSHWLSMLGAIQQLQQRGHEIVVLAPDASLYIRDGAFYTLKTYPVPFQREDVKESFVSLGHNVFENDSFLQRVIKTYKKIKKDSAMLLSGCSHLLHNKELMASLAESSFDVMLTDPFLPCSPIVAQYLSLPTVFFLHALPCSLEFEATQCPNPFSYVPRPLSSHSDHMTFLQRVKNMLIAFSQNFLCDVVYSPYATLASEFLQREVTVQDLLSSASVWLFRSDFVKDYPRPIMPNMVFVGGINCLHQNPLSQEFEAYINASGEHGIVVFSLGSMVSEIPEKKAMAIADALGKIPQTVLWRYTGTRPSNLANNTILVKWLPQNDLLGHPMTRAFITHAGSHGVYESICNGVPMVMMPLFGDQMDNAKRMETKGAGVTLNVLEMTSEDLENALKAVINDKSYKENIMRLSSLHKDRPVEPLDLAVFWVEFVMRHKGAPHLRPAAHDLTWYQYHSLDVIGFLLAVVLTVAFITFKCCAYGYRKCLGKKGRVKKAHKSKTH
Method: (§1) After 3 min of pre-incubation at 37 °C, the reactions were initiated by addition of UDPGA; incubation continued for 60 min at 37 °C in a shaking water bath. The reaction was stopped by placing the tubes on ice and adding 50 µL ice-cold acetonitrile containing internal standards (propofol glucuronide for chenodeoxycholic acid 24-acyl-β-glucuronide and mycophenolic acid glucuronide, and meloxicam for SN-38 glucuronide, trifluoperazine glucuronide, N-acetylserotonin β-D-glucuronide, and naloxone 3-β-D-glucuronide). The incubation mixtures were centrifuged (13,000× g, 4 min, 4 °C). All assays were performed in triplicate and average values were used in calculations.
(§2) The metabolites formed from the six UGT cocktail substrates were measured simultaneously using the LC-MS/MS method. The ESI source settings in both positive- and negative-ion modes for metabolite ionization were: capillary voltage, 4200 V; vaporizer temperature, 350 °C; capillary temperature, 330 °C; sheath gas pressure, 35 psi; and auxiliary gas pressure, 15 psi. […] Data were processed using Xcalibur software.
(§3) The apparent kinetic parameters for inhibitory potential (Ki and kinact values) and inhibition mode were estimated from the fitted curves using the Enzyme Kinetics program (ver. 1.1; Systat Software Inc., San Jose, CA, USA).

CYP2C9 = molecular target: T2, CYP2C9 (Homo sapiens, UniProt P11712); assay: CYP2C9 diclofenac 4′-hydroxylase inhibition in human liver microsomes
T2 construct: tissue Corning Life Sciences; host or cells: pooled human liver microsomes (150 donors)
T2 sequence (P11712 whole entry): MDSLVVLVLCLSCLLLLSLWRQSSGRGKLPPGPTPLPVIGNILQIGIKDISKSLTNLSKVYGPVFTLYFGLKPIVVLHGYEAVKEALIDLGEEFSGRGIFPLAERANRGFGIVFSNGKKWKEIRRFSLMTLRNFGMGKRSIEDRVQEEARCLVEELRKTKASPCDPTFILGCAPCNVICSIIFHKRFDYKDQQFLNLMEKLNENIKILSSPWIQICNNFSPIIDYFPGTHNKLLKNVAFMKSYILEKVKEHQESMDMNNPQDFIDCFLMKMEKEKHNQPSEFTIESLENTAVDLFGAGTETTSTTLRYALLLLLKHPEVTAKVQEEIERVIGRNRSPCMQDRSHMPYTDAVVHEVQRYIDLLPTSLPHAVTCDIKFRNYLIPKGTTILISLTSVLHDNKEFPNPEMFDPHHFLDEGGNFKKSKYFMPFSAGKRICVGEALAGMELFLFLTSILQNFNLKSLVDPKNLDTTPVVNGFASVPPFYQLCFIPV
Method: After a 3-min pre-incubation at 37 °C, the reactions were initiated by addition of NADPH and incubation proceeded for 15 min at 37 °C in a shaking water bath. […] The incubation mixtures were centrifuged (13,000× g, 4 min, 4 °C). All assays were performed in triplicate and mean values were used in calculations.
Each reaction was initiated by adding the seven-CYP probe substrate cocktail.
The reactions were initiated by addition of NADPH at 37 °C and stopped after 10 min by placing the incubation tubes on ice and adding 100 μL of ice-cold methanol containing an internal standard (d9-1-hydroxybufuralol). The incubation mixtures were centrifuged (13,000× g, 4 min, 4 °C) and then 50 μL of the supernatant was diluted with 50 μL of water. Aliquots (5 μL) of the diluted supernatants were analyzed by LC-MS/MS.
The metabolites formed from CYP substrates were quantified simultaneously by a LC-MS/MS method described previously. The ESI source settings in positive-ion mode for metabolite ionization were: capillary voltage, 4200 V; vaporizer temperature, 350 °C; capillary temperature, 330 °C; sheath gas pressure, 35 psi; and auxiliary gas pressure, 15 psi. Quantification was performed by selected reaction monitoring (SRM) of the [M + H]^+ ion and the related product ion for each metabolite: acetaminophen, 152.1 > 110.3; N-desethylamodiaquine, 328.1 > 283.0; 7-hydroxycoumarin, 163.0 > 107.2; 4-hydroxybupropion, 256.1 > 238.0; 4′-hydroxydiclofenac, 312.0 > 231.1; 4′-hydroxy-mephenytoin; 235.1 > 150.1; 1′-hydroxybufuralol, 278.1 > 186.1; 1′-hydroxymidazolam, 341.9 > 324.0; ^13C2,^15N-acetaminophen 155.1 > 111.2; and d9-1′-hydroxybufuralol, 287.2 > 187.0. Analytical data were processed using Xcalibur software (version 2.1, Thermo Scientific).
as §3

UGT1A6 = molecular target: T3, UGT1A6 (Homo sapiens, UniProt P19224); assay: UGT1A6 N-acetylserotonin glucuronidation inhibition in human liver microsomes; details: at 50 µM
T3 construct: pooled human liver microsomes (0.2 mg/mL), 5 mM UDPGA; tissue Corning Life Sciences; host or cells: pooled human liver microsomes (150 donors)
T3 sequence (P19224 27-532): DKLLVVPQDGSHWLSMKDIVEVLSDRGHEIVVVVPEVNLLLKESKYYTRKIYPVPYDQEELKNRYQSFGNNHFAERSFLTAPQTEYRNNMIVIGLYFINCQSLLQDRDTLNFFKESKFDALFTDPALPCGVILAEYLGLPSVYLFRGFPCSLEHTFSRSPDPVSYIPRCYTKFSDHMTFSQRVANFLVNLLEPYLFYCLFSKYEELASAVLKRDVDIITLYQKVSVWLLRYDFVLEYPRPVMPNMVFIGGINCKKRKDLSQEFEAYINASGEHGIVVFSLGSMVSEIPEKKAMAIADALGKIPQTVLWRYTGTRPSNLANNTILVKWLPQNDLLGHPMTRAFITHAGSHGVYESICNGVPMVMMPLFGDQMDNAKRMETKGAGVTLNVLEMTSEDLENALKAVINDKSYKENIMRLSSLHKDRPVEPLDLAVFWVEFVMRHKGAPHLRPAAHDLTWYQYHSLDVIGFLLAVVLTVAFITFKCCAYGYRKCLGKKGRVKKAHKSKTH
Method: as §1, §2, §3

## O=C(c1cccc2ccccc12)c1cn(CCCCCF)c2ccccc12 [AM-2201, 1-(5-fluoropentyl-1H-indol-3-yl)-(naphthalene-1-yl)methanone]
UGT1A1
  inhibition of UGT1A1-catalyzed SN-38 glucuronidation: negligibly inhibited
CYP2C9
  Ki: 3.9 µM
CYP2C9; CYP2C9 diclofenac 4′-hydroxylation
  Inhibition Mode: competitively inhibited; also recorded: competitive
CYP2C9; IC50 (μM) No Preincubation, Diclofenac 4′-hydroxylase, CYP2C9, human liver microsomes, 10 μM diclofenac
  IC50: 11.9 µM
CYP2C9; IC50 (μM) With Preincubation, Diclofenac 4′-hydroxylase, CYP2C9, 30 min preincubation with NADPH
  IC50: 11.9 µM
CYP2C9; IC50, CYP2C9-catalyzed diclofenac 4′-hydroxylation, abstract
  IC50: 3.9 µM
UGT1A6
  inhibition of UGT1A6-catalyzed N-acetylserotonin glucuronidation: negligibly inhibited
